The source of these data is PubChem BioAssay (NCI).

Some test systems named below: COLO 205 colon; DU-145 prostate; XF 498 CNS; IGROV1 ovarian; HOP-92 NSCLC; KM20L2 colon; A498 renal; MALME-3M melanoma; SW-620 colon; SK-MEL-28 melanoma.
Test in all cases: inhibition of tumour cell growth, NCI panel, 48 h

Several values for one entry are separate records, joined by “and”; a condition that tells them apart may be missing. Identical values can stand only once.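 The compound was tested at five concentrations on cells cultured in 96-well plates, with a 48-hour exposure period. GI50 is the concentration that inhibits growth by half. TGI denotes the concentration required for complete inhibition of growth.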

As to `CC(C)(CO)N=Cc1ccccc1[O-].CC(C)(CO)N=Cc1ccccc1[O-].[Co+2]`, the GI50 is 55.9 µM with COLO 205 colon; 42.1 µM in the test on DU-145 prostate; over 100 µM in the test on XF 498 CNS; 84.3 µM with IGROV1 ovarian; 12.9 µM in the test with HOP-92 NSCLC; 61.9 µM in the test with KM20L2 colon. Moreover, the GI50 is over 100 µM in the test on A498 renal, 49.5 µM in the test with MALME-3M melanoma, 72.4 µM in the test with SW-620 colon and 58.6 µM in the test with SK-MEL-28 melanoma. The TGI is over 100 µM in the test with COLO 205 colon; over 100 µM in the test on DU-145 prostate; over 100 µM in the test with XF 498 CNS; over 100 µM in the test on IGROV1 ovarian; 95.7 µM with HOP-92 NSCLC; over 100 µM in the test with KM20L2 colon. The TGI in the test on A498 renal, with MALME-3M melanoma, in the test with SW-620 colon and with SK-MEL-28 melanoma was over 100 µM throughout.
As for `CC1=C(C(=O)CC(=O)C(=O)NC2C3CC4CC(C3)CC2C4)Sc2ccccc2N1` (configuration not stated), the TGI is over 31.6 µM in the test with COLO 205 colon; over 100 µM in the test on XF 498 CNS; over 100 µM in the test with IGROV1 ovarian; over 100 µM with HOP-92 NSCLC; over 100 µM in the test on KM20L2 colon; over 100 µM with A498 renal. The TGI in the test with MALME-3M melanoma, in the test with SW-620 colon and in the test with SK-MEL-28 melanoma was over 100 µM in each case.
As for `Cc1cc(NC(=O)NC(=O)c2ccccc2N(C)C)ccc1Oc1ncc(Br)cn1`, the GI50 in the test with COLO 205 colon was 0.266 µM; in the test on XF 498 CNS, 0.894 µM; in the test with IGROV1 ovarian, 0.356 µM; in the test with HOP-92 NSCLC, 5.5 µM; in the test with MALME-3M melanoma, 2.22 µM. Moreover, the TGI in the test on DU-145 prostate was over 63.1 µM; in the test on IGROV1 ovarian, over 63.1 µM; in the test with HOP-92 NSCLC, 46.2 µM; in the test on KM20L2 colon, 0.796 µM; in the test on A498 renal, 6.71 µM; in the test with MALME-3M melanoma it was over 100 µM. Moreover, the TGI in the test on SW-620 colon is over 71.1 µM; in the test with SK-MEL-28 melanoma, over 63.1 µM.
`CC(=O)OCCC(O[Si](c1ccccc1)(c1ccccc1)C(C)(C)C)C(C)(C)O` (configuration not stated): the TGI in the test with COLO 205 colon was 30.3 µM; in the test with XF 498 CNS, 96.8 µM; in the test with IGROV1 ovarian, over 100 µM; with HOP-92 NSCLC, 65.1 µM; in the test on KM20L2 colon, over 100 µM; in the test on A498 renal, over 100 µM. Besides, the TGI with MALME-3M melanoma, in the test with SW-620 colon and with SK-MEL-28 melanoma was over 100 µM in each case.
In the case of `NS(=O)(=O)c1ccc(NC(=O)c2cccn3c(=O)c4ccccc4nc23)cc1`, the TGI in the test with COLO 205 colon, with XF 498 CNS, with IGROV1 ovarian, in the test on HOP-92 NSCLC, in the test on KM20L2 colon and with A498 renal was over 100 µM each time. The TGI in the test with MALME-3M melanoma, with SW-620 colon and in the test on SK-MEL-28 melanoma was over 100 µM each time.
With `C/C(=N/NC(=O)CC(=O)N(C(=O)c1ccccc1Cl)c1ccc(C)cc1)c1cc2ccccc2oc1=O`, the TGI in the test on COLO 205 colon, in the test on XF 498 CNS, in the test with IGROV1 ovarian, with HOP-92 NSCLC, with KM20L2 colon and in the test on A498 renal was over 100 µM throughout. For the same compound, the TGI in the test on MALME-3M melanoma, with SW-620 colon and in the test with SK-MEL-28 melanoma was over 100 µM in each case.
For `Cc1ccc(/C=C2\CNC/C(=C\c3ccc(C)cc3)C2=O)cc1`, the GI50 with COLO 205 colon is 1.45 µM; in the test with IGROV1 ovarian it was 3.64 µM; in the test with HOP-92 NSCLC it was 2.21 µM; in the test on A498 renal, 1.63 µM; in the test with MALME-3M melanoma, 2.4 µM; in the test with SW-620 colon, 0.473 µM. Further, the TGI in the test on COLO 205 colon was 2.78 µM and 7.3 µM; with DU-145 prostate, 16 µM; in the test with XF 498 CNS it was 5.16 µM; in the test on IGROV1 ovarian it was 4.92 µM; with HOP-92 NSCLC it was 5.49 µM and 14.5 µM; in the test with KM20L2 colon, 3.02 µM and 3.14 µM. Also, the TGI with A498 renal is 3.36 µM and 3.56 µM; with MALME-3M melanoma, 6.37 µM and 38.5 µM; in the test on SW-620 colon, 2.11 µM and 8.36 µM; in the test on SK-MEL-28 melanoma, 4.05 µM and 4.83 µM.
Regarding `CC[C@@]1(O)C(=O)OCc2c1cc1n(c2=O)Cc2cc3c(N)cccc3nc2-1`, the TGI was 6.22 µM with COLO 205 colon; under 0.0299 µM in the test on DU-145 prostate; 1.05 µM in the test on XF 498 CNS; 6.26 µM in the test on IGROV1 ovarian; 1.99 µM in the test on HOP-92 NSCLC; 4.02 µM in the test with KM20L2 colon. Further, the TGI with A498 renal stood at 0.611 µM; with MALME-3M melanoma it was 1.88 µM; in the test with SW-620 colon, 16.3 µM; with SK-MEL-28 melanoma, 16.3 µM. The GI50 is 0.004 µM with DU-145 prostate and 0.0896 µM in the test on A498 renal.
For `NC(=O)C(=O)n1ncc(Cl)c(Cl)c1=O`, the TGI in the test on COLO 205 colon is over 51.1 µM; in the test with DU-145 prostate, over 100 µM; in the test with XF 498 CNS, 31.6 µM; in the test with IGROV1 ovarian, over 77.4 µM; with HOP-92 NSCLC it was over 57.8 µM; in the test on KM20L2 colon, over 90.8 µM. Also, the TGI in the test with A498 renal was over 100 µM; with MALME-3M melanoma, 38.7 µM; in the test with SW-620 colon it was 35.3 µM; in the test on SK-MEL-28 melanoma, 30.5 µM.
